Measured values reported in patent publication US4950605A, “FR-900493 substance, a process for its production and a pharmaceutical composition containing the same” (Fujisawa Pharmaceutical Co., Ltd., priority 1988, dated 1990).
Converted amounts (≈) assume the structure as drawn.

Experiments:
[1] = system: Bacillus subtilis ATCC-6633; assay: Antimicrobial activity, MIC on 1/2 Mueller-Hinton agar; format: cell-based; conditions: 37° C., 24 hours
Method: (§1) Antimicrobial activities: (a) Test Method One loopful of an overnight culture (10^8 cells/ml) of each test bacteria in bouillon was streaked on 1/2 Mueller-Hinton agar containing the graded concentration of the FR-900493 substance and the minimal inbibitory concentration (MIC) was determined after incubation at 37° C. for 24 hours.

[2] = system: Staphylococcus aureus 209P JC-1; assay: as above; format: cell-based; conditions: 37° C., 24 hours
Method: as §1

[3] = system: Staphylococcus aureus 1601-6; assay: as above; format: cell-based; conditions: 37° C., 24 hours
Method: as §1

[4] = system: Staphylococcus aureus 1601-47; assay: Protective efficacy in experimental infections in mice; format: in vivo, ddY mouse (infected with Staphylococcus aureus 1601-47); conditions: 30 mg/kg subcutaneous, one hour after intraperitoneal infection with 3×10^6 cells; male ddY mice 5 weeks; observed 2 days
Method: Protective efficacy in experimental infections in mice: The in vivo activity of the FR-900493 substance against experimental infections due to Staphylococcus aureus 1601-47 was examined. One hour after the intraperitoneal injection of 3×10^6 cell of the test strain to each ddY mouse (male, 5 weeks age), the solution of the FR-900493 substance was administered subcutaneously.

[5] = Acute toxicity in mice; format: in vivo; conditions: intravenous; ddY mice, 4 weeks age, male
Method: The median lethal dose (LD50) of the FR-900493 substance in mice (ddY, 4 weeks age, male) by intravenous administration was >500 mg/kg.

**Q.** With `CN(CCCN)[C@H](C(=O)O)[C@H](O[C@@H]1O[C@H](CN)[C@@H](O)[C@H]1O)[C@H]1O[C@@H](n2ccc(=O)[nH]c2=O)[C@H](O)[C@@H]1O` [FR-900493 substance] as the compound, how does the “minimal inhibitory concentration (MIC)” value [1] read?
**A.** 3.13 µg/mL (≈ 6.02 µM)

**Q.** What about the “minimal inhibitory concentration (MIC)” value [2] of the same compound?
**A.** 3.13 µg/mL (≈ 6.02 µM)

**Q.** And the “minimal inhibitory concentration (MIC)” value [3]?
**A.** 6.25 µg/mL (≈ 12 µM)

**Q.** What about the Survival [4] of the same compound?
**A.** 100%

**Q.** And the “median lethal dose (LD50)” value [5]?
**A.** > 500 mg/kg
